Ends that are not written are not given here.
Tests used:
mab SZ-2 = assay: ELISA: phage binding to biotinylated SZ-2 inhibits binding of SZ-2 to immobilized glycocalicin; conditions: phage clone
Procedure: At this point, an ELISA assay can be used to evaluate individual clones, if the number of clones is high. In brief, phage having undergone two PEG precipitations, and subsequently adjusted for titer, can be incubated overnight with biotinylated mab, following which the mab-phage mixture can be added to wells of microtiter plates that have been previously coated with formalin-fixed platelets (or other suitable immobilized target recognized by the mab). Following a series of washing steps, avidin-peroxidase is added, the wells washed again, chromogenic substrate added, and the wells eventually read on an ELISA plate reader. The relative decrease in strength of signal in this assay provides guidance as to the most promising clones for further study. Consensus peptides identified in this manner can be chemically synthesized and characterized with respect to ability to bind original antibody. Peptides showing high binding affinity for the antibody can then be used as immunogens in mice and/or rabbits. […]

formalin-fixed platelets = format: cell-based, human
Procedure: (§1) Citrated human platelet-rich plasma (PRP) was prepared by standard methods (Miller et al. 1983). For study of C-34 neutralization by mimotope peptide, 350 μL of PRP containing 150,000 platelets/μL was incubated for 10 min at 22° C. with phosphate-buffered saline (PBS), 20 μg/mL C-34 mab, or 20 μg/mL C-34 that had previously been incubated for 30 min at 22° C. with varying concentrations of peptides. The PRP was then brought to 37° C. and stirred at 1200 rpm in a Chrono-Log lumi-aggregometer (Chrono-Log Corporation, Havertown, Pa.). Aggregation was initiated by the addition of 1 mg/mL ristocetin (Helena Laboratories, Beaumont, Tex.). For screening of bacteriophage clones displaying potential anti-mimotope peptides, 150 μl of PEG/NaCl precipitated phage was incubated with 250 μl of citrated PRP for one hour at 22° C., transferred to the aggregometer, following which ristocetin was added at a final concentration of 0.8 mg/ml.
Further studies were undertaken with chemically synthesized peptide having SEQ ID NO:94: […]. This decapeptide was able to inhibit ristocetin-induced aggregation fully, with an IC50 occurring between 200–400 μg/mL (FIG. 9). […] In order to approximate more closely the native structure, peptides with an (Arg→Lys) substitution at position 7 were then studied. […] Whereas the […] Finally, both the wild-type GPIb alpha 228–237 peptide (SEQ ID NO:108) containing Gly at residue 233 and the PT-vWD variant with Val replacing Gly at this position (SEQ ID NO:107) were synthesized. […] Lyophilized peptides were reconstituted in PBS, pH 6.0 and 150 μL of varying dilutions incubated for 2–4 hr at 22° C. with 250 μL of formalin-fixed platelets ([…]), prior to aggregometry in which the addition of 1 U/mL purified vWF was followed by the addition of 0.9 mg/mL ristocetin.

[1] = test system: platelets in citrated PRP; assay: Functional screening of candidate anti-mimotope bacteriophage clones, ristocetin-induced aggregation in citrated PRP; format: cell-based, human; conditions: 150 μL phage + 250 μL citrated PRP, 1 hr 22° C., 0.8 mg/mL ristocetin (FIG. 8)
Procedure: FIG. 8 illustrates the functional screening of candidate anti-mimotope bacteriophage clones. Following incubation of 150 μL of the indicated bacteriophage clones with 250 μL of citrated PRP for 1 hr at 22° C., aggregation was initiated by the addition of 0.8 mg/mL ristocetin under stirring conditions at 37° C.;
as §1
The mimotope decapeptide itself was then used as a probe to search for “anti-mimotope” peptides. […]

[2] = target: human platelet glycoprotein Ib/IX complex (human, UniProt P07359 17-652; P13224 26-206; P14770 17-177); assay: cell-based or functional assay
Sequence of human platelet glycoprotein Ib/IX complex (P07359 17-652, chain 1 of 3): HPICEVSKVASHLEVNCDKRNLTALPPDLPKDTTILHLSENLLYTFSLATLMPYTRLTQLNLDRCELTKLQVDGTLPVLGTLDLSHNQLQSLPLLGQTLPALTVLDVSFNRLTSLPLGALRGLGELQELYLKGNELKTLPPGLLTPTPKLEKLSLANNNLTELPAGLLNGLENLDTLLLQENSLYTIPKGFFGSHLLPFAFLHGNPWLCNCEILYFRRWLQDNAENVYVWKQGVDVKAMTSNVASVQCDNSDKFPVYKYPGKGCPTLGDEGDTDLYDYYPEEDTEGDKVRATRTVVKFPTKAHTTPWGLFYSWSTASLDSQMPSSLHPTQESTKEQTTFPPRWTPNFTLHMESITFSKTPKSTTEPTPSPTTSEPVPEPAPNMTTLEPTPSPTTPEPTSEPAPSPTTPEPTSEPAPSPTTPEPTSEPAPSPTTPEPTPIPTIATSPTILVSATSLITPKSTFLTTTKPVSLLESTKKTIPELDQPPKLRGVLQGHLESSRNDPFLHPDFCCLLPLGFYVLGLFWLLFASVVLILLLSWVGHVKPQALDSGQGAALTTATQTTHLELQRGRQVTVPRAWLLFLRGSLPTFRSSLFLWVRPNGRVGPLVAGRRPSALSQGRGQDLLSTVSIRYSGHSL
Sequence of human platelet glycoprotein Ib/IX complex (P13224 26-206, chain 2 of 3): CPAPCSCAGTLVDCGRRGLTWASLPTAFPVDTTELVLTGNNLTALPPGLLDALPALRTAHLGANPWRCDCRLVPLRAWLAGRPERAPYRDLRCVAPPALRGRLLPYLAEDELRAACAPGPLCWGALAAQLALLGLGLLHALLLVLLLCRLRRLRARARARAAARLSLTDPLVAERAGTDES
Sequence of human platelet glycoprotein Ib/IX complex (P14770 17-177, chain 3 of 3): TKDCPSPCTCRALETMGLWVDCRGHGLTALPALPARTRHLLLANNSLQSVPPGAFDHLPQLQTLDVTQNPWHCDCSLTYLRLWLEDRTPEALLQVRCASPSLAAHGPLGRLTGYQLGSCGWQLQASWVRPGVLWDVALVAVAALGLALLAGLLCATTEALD

Molecule: WHWRSSWKSG [SEQ ID NO:83]
- neutralization of SZ-2 binding to immobilized glycocalicin (mab SZ-2): fully neutralizing

Molecule: RHVAWWRQGV [SEQ ID NO:94, RHVAWWRQGV]
- IC50 for inhibition of ristocetin-induced aggregation (formalin-fixed platelets): 200 to 400 µg/mL
- inhibition of ristocetin-induced aggregation (extent, in words) (formalin-fixed platelets; formalin-fixed platelets, 1 U/mL purified vWF, 0.9 mg/mL ristocetin): fully
- inhibitory activity of bacteriophage clone in functional platelet assay [1]: inhibitory activity above background level

B1: chemically synthesized peptide having SEQ ID NO:94 (peptide)
peptide: RHVAWWRQGV
- IC50 of inhibition of ristocetin-induced aggregation of formalin-fixed platelets with vWF [2]: 200 to 400 µg/mL

Source: US7074888B1, “Mimotopes and anti-mimotopes of human platelet glycoprotein Ib/IX” (The Research Foundation of State University of New York, priority 1995, dated 2006)
